Assay results taken from patent publication EP4559473A1, “PEPTIDE FOR THE TREATMENT OF DISEASES ASSOCIATED WITH APOLIPOPROTEIN AI OR TRANSTHYRETIN INVOLVEMENT” (Centro de Ingeniería Genética y Biotecnología, priority 2022, dated 2025).
Ends that are not written are not given here.

Key:
[1] = Treatment of patients with ischemic heart disease and high blood pressure; format: in vivo; conditions: six patients, 1 mg every 12 hours intravenously for seven days; clinical and imaging evaluation
Protocol: It is exemplified with the results of six patients. They presented ischemic heart disease, associated with high blood pressure, which produced a state of severity. They were treated in the Intermediate Care Unit (IMCU) of the "Luis Díaz Soto" hospital in Havana. These patients were treated with a pharmaceutical composition comprising the peptide identified as SEQ ID NO: 1, so that a peptide dose of 1 mg every 12 hours was administered intravenously for seven days. In addition, they received the standard therapy needed for these cases.
The treatment with this peptide was very safe, and verified by monitoring blood biochemistry parameters and differential blood count.

[2] = Treatment of patients with type II diabetes (diabetic decompensation); format: in vivo; conditions: five patients, 1 mg every 12 hours intravenously for eight days; clinical and imaging evaluation
Protocol: It is exemplified with ten patients who had diabetic decompensation and reached a state of severity, that let them to be treated in the ICU of the hospital "Luis Díaz Soto" in Havana. Five of these patients were treated with a pharmaceutical composition comprising the peptide identified as SEQ ID NO: 1, so that a peptide dose of 1 mg every 12 hours was administered intravenously for eight days. In addition, they received the standard therapy needed for these cases.
Treatment with this peptide was very safe and was verified by monitoring blood biochemistry parameters and differential blood count.

## SIDLKDKYKNIGAKLVQLVANNTNEEA [peptide identified as SEQ ID NO: 1]
[1]
  side effects: No side effects were observed
[2]
  side effects: No side effects were observed
